# Source: US20100016423A1, “USE OF DRONEDARONE FOR THE TREATMENT OF PATIENTS WITH ARRHYTHMIA AND HAVING AN INCREASE OF CREATININE LEVEL DUE TO DRONEDARONE ADMINISTRATION” (SANOFI-AVENTIS, priority 2008, published 2010)
# How the values were obtained:
# [1] = Br. J. Clin. Pharmac., 1993, 36, 125-127; cited from earlier work
# [2] = Clinical trials with dronedarone: serum creatinine levels; format: in vivo
# Procedure: The instant invention therefore relates to a method of managing the risk of an increased morbidity and mortality rate in patients treated by an association of dronedarone or one of its pharmaceutically acceptable salts and of at least a compound B selected from ACE inhibitors, angiotensin II receptor antagonists and potassium sparing diuretics. Said method is performed by performing the following steps: • a) initially measuring serum creatinine levels, such as within one week after initiation of treatment with dronedarone, which provides a reference level, • b) monitoring serum creatinine levels at regular intervals during treatment of the patient by the compound B (as recommended in the labelling of compound B), • c) if the serum creatinine levels increases above the reference level, clinical judgement should be made to determine if the increase is due to dronedarone, to compound B or to another cause, • d) to help clinical judgment and evaluate if the increase is due to dronedarone, dronedarone can be temporarily interrupted.
# Concerning step a) of the methods of the invention, as mentioned before, in most patients with atrial fibrillation or atrial flutter the maximal increase in creatinine levels, compared to the level before administration of dronedarone, was smaller than 30%, with a mean increase ranging from 10 to 15% or more. Then during the treatment with dronedarone, mean creatinine levels remain stable, this corresponds to a plateau.
# [3] = Specific study in healthy subjects: renal handling of creatinine; format: in vivo
# [4] = ANDROMEDA (EFC4966) clinical trial in patients with a recent severe episode of Congestive Heart failure; format: in vivo; conditions: 400 mg BID
# Procedure: Despite the equal distribution of treatment with ACE inhibitors/AII receptor antagonists at baseline, concomitant treatment with these drugs became unbalanced during the course of the ANDROMEDA study, as more patients in the dronedarone 400 mg BID group discontinued these treatments and fewer started them (table 2).
# In the dronedarone 400 mg BID group, 14 of 41 patients who discontinued ACE/AII experienced “blood creatinine increased” or “renal impairment” adverse events, versus none among the 18 patients taking placebo in this category. This observation supports the hypothesis that an increase in serum creatinine observed in patients taking dronedarone may have led investigators to discontinue ACE/AII treatment (table 4).
smiles,measurement,setting,value
COc1cc(Cc2cnc(N)nc2N)cc(OC)c1OC [trimethoprim],tubular secretion of creatinine,[1],decrease in the tubular secretion of creatinine
"CCCCc1oc2ccc(NS(C)(=O)=O)cc2c1C(=O)c1ccc(OCCCN(CCCC)CCCC)cc1 [dronedarone, 2-n-butyl-3-[4-(3-di-n-butylaminopropoxy)benzoyl]-5-methylsulfonamido-benzofuran]",change in serum creatinine levels of the patient,[2]; administration of dronedarone in clinical trials,slight increase
same,return of creatinine levels to baseline after treatment discontinuation,[2]; after treatment discontinuation,within three days
same,time of occurrence of creatinine increase after treatment initiation,[2]; after treatment initiation,within two days
same,return of creatinine to baseline after temporary interruption of dronedarone,[2]; demonstrated in another clinical trial,≤ 5 days
same,creatinine levels during treatment,[2]; during treatment,remained stable
same,maximal increase in creatinine levels compared to the level before administration,[2]; most patients with atrial fibrillation or atrial flutter,smaller than 30%
same,effect on creatinine secretion at the tubular level,[3],inhibition of creatinine secretion at the tubular level
same,effect on glomerular filtration,[3],no effect
same,effect on renal blood flow,[3],no effect
same,patients who died among those who never interrupted ACE inhibitors/AII receptor antagonists,[4],4%
same,patients who discontinued ACE/AII and experienced blood creatinine increased or renal impairment adverse events,[4]; of 41 patients who discontinued ACE/AII,14 patients
CCCCc1oc2ccccc2c1C(=O)c1cc(I)c(OCCN(CC)CC)c(I)c1 [amiodarone],tubular secretion of creatinine,[1],decrease in the tubular secretion of creatinine
CN/C(=N/CCSCc1nc[nH]c1C)NC#N [cimetidine],tubular secretion of creatinine,[1],decrease in the tubular secretion of creatinine
